Patent US20240366587A1, “USES OF A SOMATOSTATIN MODULATOR FOR THE TREATMENT OF DISEASE” (Crinetics Pharmaceuticals, Inc., priority 2021, published 2024)
Values joined by “and” are separate entries in the source; they are usually repeats but may differ in a detail not shown here. Identical values can stand only once.

Key:
[1] = Phase 1 single-and-multiple-dose study in healthy volunteers: oral glucose tolerance test / safety; type: in vivo, human; conditions: for change in fasting plasma glucose: multiple dosing up to 30 mg; for treatment emergent adverse events of hyperglycemia: repeated daily dosing 5-30 mg, OGTT after 10 days of dosing; for glucose concentration by 2 hours post challenge / peak glucose concentration 1 hour post oral glucose challenge: one subject
Method: A phase 1, randomized, double-blind, placebo-controlled, single and multiple ascending dose study was performed with oral Compound A at a single study center. Inclusion criteria included age 18 to 50 years; body mass index of 18-30 kg/m^2; and if female, postmenopausal by history or surgery. Exclusion criteria included presence of significant medical history.
In the single-dose phase, participants were randomized 6:2 to Compound A (1.25, 2.5, 5, 10, 20, 40, and 60 mg) or placebo in 7 cohorts (S1 to S7). Cohorts comparing oral bioavailability of solution versus capsules and the effect of a standardized high-fat, high-calorie breakfast on oral bioavailability of the capsule formulation employed the 10 mg dose level. In the multiple-dose phase, participants were randomized 6:3 to once-daily oral Compound A-HCl capsules or placebo at doses of 5 mg for 7 days (M1, Day Last=Day 7), and 10, 20, and 30 mg daily for 10 days (M2, M3, M4, Day Last=Day 10).
Safety assessments: Safety assessments included monitoring of clinical laboratory tests, cardiovascular safety monitoring (continuous Holter monitoring, ECG, telemetry), and physical examinations conducted at scheduled times throughout the study in the research units as well as post-discharge (up to 9 days after the single-dose, or up to 11 days after the last dose for multiple-dose cohorts). Adverse events and concomitant medications were recorded. Laboratory samples for clinical chemistry, hematology, coagulation tests, and urinalysis were collected under fasted conditions.
In the multiple-dose cohorts, baseline serum TSH, ACTH, and prolactin samples were collected on Day −2, and an oral glucose tolerance test (OGTT) was conducted on Day −7 or earlier. These assessments were repeated on Day 8 (M1) or Day 11 (M2 and subsequent cohorts).
Clinically significant hypoglycemia occurred in 1 subject in Cohort M3 (Compound A-HCl−10 days at 20 mg/day) at 2 and at 3 hours post-glucose challenge, and in 1 subject in Cohort M4 (Compound A-HCl−10 days at 30 mg/day) at 3 hours post-glucose challenge at the baseline assessment (Day −7).

[2] = Phase 1 multi-cohort single dose study: relative bioavailability and PK of SDD tablets vs HMG capsules; type: in vivo, human
Method: The study was conducted in up to 3 cohorts, each with a specific primary objective: • Cohort 1: To characterize performance of 10 mg tablets prepared by spray-dried dispersion (SDD) of Compound A-HCl salt. • Cohort 2: To evaluate the relative bioavailability of 10 mg SDD tablets compared to the Compound A-HCl hot melt granulation (HMG) formulation, 10 mg capsules. To determine the effect of timing of food administration on pharmacokinetics of low dose of the 10 mg SDD tablets. • Cohort 3: To determine the effect of timing of food administration on pharmacokinetics of SDD tablets and dose proportionality in doses higher than 20 mg. To determine the optimal dosing regimen that results in adequate systemic exposure with short post-dose fasting duration. • Cohort 4: To determine the effect of timing of food administration on pharmacokinetics of SDD tablets in doses higher than 20 mg. To determine the optimal dosing regimen of paltusotine that results in high systemic exposure with low post-dose fasting duration • Cohort 5: To determine the effect of the proton-pump inhibitor (PPI), lansoprazole, on the pharmacokinetics of a 60 mg dose of SDD tablets. To determine the effect of a low-fat meal on the pharmacokinetics of a 60 mg dose of SDD tablets.
The SDD tablets were evaluated. Up to twelve (12) healthy male and female subjects were enrolled in each cohort. Cohort 1 consisted of 4 periods: In Period 1, subjects were administered a proton-pump inhibitor (lansoprazole, 15 mg BID for 3 days (from Day −3), taken orally at least 30 min prior to a meal, once in the morning and once in the evening). On the fourth day (Day 1 of study), fasted subjects will take the last dose of lansoprazole (15 mg) 60 min prior to 20 mg Compound A (2×10 mg of the SDD tablets). In Period 2, fasted subjects were administered 20 mg Compound A (2×10 mg of the SDD tablets). In Period 3, fasted subjects were administered 20 mg Compound A (2×10 mg of the SDD tablets) with a high-fat, high-calorie meal. In Period 4, fasted subjects will take up to 80 mg Compound A (up to 8×10 mg of the SDD tablets). […]

subjects with acromegaly [3] = test: ACROBAT Advance long-term study: safety and tolerability; type: in vivo, human; conditions: acromegaly patients; including in combination with cabergoline
Method: (§1) ACROBAT Advance is an ongoing open-label, long-term (5 year) safety and efficacy study of paltusotine in patients rolling-over from the ACROBAT Evolve & Edge studies.
(§2) Eligible patients completing ACROBAT Edge and Evolve entered ACROBAT Advance either immediately on completion of a washout period in the parent study or after a gap during which they reverted to their routine standard of care treatment. Paltusotine therapy: initiated at 10 mg/day and titrated up to maximum dose of 40 mg/day based on IGF-1 and tolerability. Patients were administered 10 mg HMG capsules. Combination therapy was allowed for patients not reaching therapeutic targets with 40 mg/day of paltusotine monotherapy.

subjects with acromegaly [4] = test: ACROBAT Edge: patient reported outcomes (Acromegaly Symptom Diary, PGI-I); type: in vivo, human
Method: Patients recorded daily acromegaly symptoms using a nine-item Acromegaly Symptom Diary (ASD). The ASD is a 9-item patient-reported measure of symptoms associated with acromegaly, including headache, joint pain, sweating, fatigue, leg weakness, swelling, numbness/tingling, sleep difficulties, and short-term memory difficulties. Symptoms experienced in the previous 24 hours are rated on an 11-point scale, from 0 (no symptom) to 10 (worst symptom). Patient Global Impression of Improvement (PGI-I) scale was completed at week 13 (end of treatment).

growth hormone (GH) = test: ACROBAT Edge Phase 2 study in acromegaly: GH levels; type: in vivo, human
Method: (§3) An open label exploratory study designed to evaluate the safety, efficacy, and pharmacokinetics of Compound A (also known as paltusotine) in subjects with acromegaly that are treated with somatostatin analogue (SSA) based treatment regimens.
(§4) 5 mg or 10 mg HMG capsule formulation. Multiple capsules were swallowed with water depending on dose specified for a given period/cohort. Enrolled patients began treatment with oral paltusotine 10 mg/day. The dose was up-titrated in a double-blind manner in 10-mg increments to a maximum 40 mg/day at weeks 4, 7 and 10 according to IGF-1 levels measured at weeks 2, 5, and 8, respectively. Up-titrations were performed if the investigator confirmed that the patient was tolerating the current dose and the unblinded central IGF-1 reader determined that IGF-1 was >0.9×ULN at week 2 and 5 or >1.0×ULN at week 8.

[5] = tested on: insulin-like growth factor-1 (IGF-1); test: ACROBAT Edge Phase 2 study in acromegaly: IGF-1 levels; type: in vivo, human
Method: as §3, §4
Primary Outcome Measures: Change from baseline (mean of Screening values) in insulin-like growth factor-1 (IGF-1) level [Time Frame: 13 Weeks].
The primary hypothesis was that the group would show no change in the median IGF-1 at Week 13 versus baseline.

[6] = Clinical studies: bioavailability and half-life of Compound A; type: in vivo; conditions: human, plasma, oral
Description: Compound A is a selective nonpeptide SST2 biased agonist. […] In some embodiments, Compound A is used to treat acromegaly, neuroendocrine tumors, or both. In some embodiments, Compound A is used to treat acromegaly. In some embodiments, Compound A is used to treat neuroendocrine tumors. In some embodiments, Compound A is used to treat pituitary gigantism.

IGF-1 [7] = test: ACROBAT Advance long-term study: IGF-1; type: in vivo, human; conditions: once daily oral, 10-40 mg/day HMG capsules; interim results
Method: as §1, §2
IGF-1 measured centrally with IDS-ISYS assay calibrated to WHO recombinant reference standard 02/254.

IGF-1 [8] = test: Phase 2 clinical trials of acromegaly patients previously treated with LA-SRLs: steady state IGF-1 change by dose; type: in vivo, human; conditions: baseline = IGF-1 at last LA-SRL injection
Description: The switch to Compound A-monohydrochloride occurred 4 weeks after last LA-SRL injection.

[9] = Cohort M2 (10 mg/day, 10 days), monohydrochloride
[10] = Cohort M3 (20 mg/day, 10 days), monohydrochloride

N#Cc1cccc(-c2ccc3ncc(-c4cc(F)cc(F)c4)c(N4CCC(N)CC4)c3c2)c1O [Compound A, 3-(4-(4-amino-piperidin-1-yl)-3-(3,5-difluoro-phenyl)-quinolin-6-yl)-2-hydroxy-benzonitrile]
change in fasting plasma glucose ([1]; healthy volunteers): not associated with significant changes in fasting plasma glucose | treatment emergent adverse events of hyperglycemia ([1]; healthy volunteers): Two TEAEs of asymptomatic hyperglycemia occurred | increase from baseline in serum glucose AUC0-3 hr ([1]; healthy volunteers, up to 30 mg, placebo 18%): up to 36% | glucose concentration by 2 hours post challenge ([1]; Cohort M2 (10 mg/day, 10 days)): 4.3 mmol/L and 77 mg/dL | peak glucose concentration 1 hour post oral glucose challenge ([1]; Cohort M2 (10 mg/day, 10 days)): 12.4 mmol/L and 223 mg/dL | glucose concentration by 2 hours post challenge ([1]; Cohort M3 (20 mg/day, 10 days)): 5.8 mmol/L and 104 mg/dL | peak glucose concentration 1 hour post oral glucose challenge ([1]; Cohort M3 (20 mg/day, 10 days)): 12.2 mmol/L and 220 mg/dL | reduction of exposures (Cmax and AUC) when administered with PPI ([2]; Cohort 5, 60 mg SDD tablets): ~40% | reduction of exposures (Cmax and AUC) when administered with low-fat meal ([2]; Cohort 5, 60 mg SDD tablets): ~60% | reduction of exposures when administered with high-fat meal ([2]; SDD tablets): > 80% | tolerability and safety profile (subjects with acromegaly [3]): well tolerated with a safety profile similar to that of SRLs | change in total ASD score from Baseline to week 13/EoT, median (IQR) (subjects with acromegaly [4]; n=18, score range 0-70): −0.43 (−5.0, 2.4) | patients "minimally improved" or "no change" on PGI-I (subjects with acromegaly [4]; week 13/EoT): 26 (55.3%) patients | patients reporting worsening on PGI-I (subjects with acromegaly [4]; week 13/EoT): No patients reported any degree of worsening | patients "very much improved" or "much improved" on PGI-I (subjects with acromegaly [4]; week 13/EoT, compared to before the study, while treated with depot SRLs): 11 (23.4%) patients | change of GH levels from baseline after 13 weeks of treatment (growth hormone (GH); acromegaly patients previously treated with injected SRL depots): did not significantly change from baseline levels | GH after withdrawal of treatment (growth hormone (GH); acromegaly patients, washout): Rise in GH after withdrawal | change of IGF-1 levels from baseline after 13 weeks of treatment ([5]; acromegaly patients previously treated with injected SRL depots, 10-40 mg/day): did not significantly change from baseline | IGF-1 after withdrawal of treatment ([5]; acromegaly patients, washout): Rise in IGF-1 after withdrawal (within 2 weeks) | bioavailability ([6]; read-out: estimated bioavailability): ~70% | half-life ([6]; read-out: observed half-life): 2520 to 3000 min | IGF-1 level on long-term treatment (IGF-1 [7]): lowers and maintains IGF-1 at levels comparable to prior injected SRL therapy for up to 51 weeks

Cl.N#Cc1cccc(-c2ccc3ncc(-c4cc(F)cc(F)c4)c(N4CCC(N)CC4)c3c2)c1O [Compound A-HCl, 3-[4-(4-amino-piperidin-1-yl)-3-(3,5-difluoro-phenyl)-quinolin-6-yl]-2-hydroxy-benzonitrile monohydrochloride]
Glucose AUC (0-3 hr) Difference (SE), oral glucose tolerance test ([1]; healthy volunteers, 7 days - 5 mg/day, Day −7 vs day after last dose): 3.8 (4.00) h*mmol/L | Glucose AUC (0-3 hr) Difference (SE), oral glucose tolerance test ([1]; healthy volunteers, 10 days - 10 mg/day): 2.4 (3.19) h*mmol/L | Glucose AUC (0-3 hr) Difference (SE), oral glucose tolerance test ([1]; healthy volunteers, 10 days - 20 mg/day): 5.1 (3.12) h*mmol/L | Glucose AUC (0-3 hr) Difference (SE), oral glucose tolerance test ([1]; healthy volunteers, 10 days - 30 mg/day, monohydrochloride): 3.2 h*mmol/L and 3.2 (1.34) h*mmol/L | change in fasting plasma glucose ([1]; healthy volunteers): wasn't significantly changed | treatment emergent adverse events of hyperglycemia ([1]; healthy volunteers): two treatment emergent adverse effects (TEAEs) of asymptomatic hyperglycemia occurred | glucose concentration by 2 hours post challenge [1, 9]: 77 mg/dL and 4.3 mmol/L | peak glucose concentration 1 hour post oral glucose challenge [1, 9]: 12.4 mmol/L and 223 mg/dL | glucose concentration by 2 hours post challenge [1, 10]: 5.8 mmol/L and 104 mg/dL | peak glucose concentration 1 hour post oral glucose challenge [1, 10]: 12.2 mmol/L and 220 mg/dL | steady state IGF-1 change from baseline (IGF-1 [8]; 10 and 20 mg per day): IGF-1 levels that were above baseline | steady state IGF-1 change from baseline (IGF-1 [8]; 30/day and 40 mg/day): changes from baseline of near zero
